Experimental findings from US11268145B2, “Methods for treating Cushing's syndrome” (priority 2015, dated 2022) are described below.

This assay deals with FKBP5 gene expression. Put plainly: FKBP5 gene expression in whole blood of healthy subjects after GR agonist, with or without GRA. It counts as in vivo, human. The conditions noted are these: GAPDH normalized. The method, then: FIG. 1: depicts a study scheme for examining the expression level of the gene FKBP5, which encodes the FKBP5 protein, in response to administration of a GR modulator. In this scheme, healthy subjects are administered a GR agonist, followed by co-administration of a GR agonist and a GR antagonist (GRA). Blood samples are obtained from 10 subjects before each dose and at various time points after each dose. FKBP5 expression levels are measured before dosing on each day, and at selected times after dosing on each day.
Blood samples are taken before each dose and at various time-points after each dose. The study scheme is depicted in FIG. 1. The expression level of the FKBP5 gene is measured in the pre-administration samples obtained before dosing on each day and in the post-administration samples obtained at various time points after dosing on each day. Raw expression level data in the samples are normalized against the expression level of the glyceraldehyde phosphate dehydrogenase (GAPDH) gene in each sample.

Structures are written as SMILES.

With `Cn1cc(S(=O)(=O)N2CCC3=Cc4c(cnn4-c4ccc(F)cc4)C[C@]3(C(=O)c3cc(C(F)(F)F)ccn3)C2)cn1` [CORT125134], the “change in the fold change in FKBP5 expression” value (prednisone 25 mg with CORT125134 500 mg) is on record as “significant decrease”.

With `CC#C[C@]1(O)CC[C@H]2[C@@H]3CCC4=CC(=O)CCC4=C3[C@@H](c3ccc(N(C)C)cc3)C[C@@]21C` [mifepristone], the “change in the fold change in FKBP5 expression” value (prednisone 25 mg with mifepristone 600 mg) is reported as “significant decrease”.
